In PubChem BioAssay (NCI):
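Interpolation was linear, between the two tested concentrations surrounding the appropriate level; five concentrations were tested over 48 hours in 96-well plates. At the GI50, growth is halved. TGI is the concentration that stops growth completely.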

Tests used:
Assay in all cases: NCI anticancer screen, dose series, 48 h
NCI-H23 lung = test system: NCI-H23 lung
NCI-H460 lung = test system: NCI-H460 lung
NCI-H522 lung = test system: NCI-H522 lung
NCI/ADR-RES ovarian = test system: NCI/ADR-RES ovarian
OVCAR-3 ovarian = test system: OVCAR-3 ovarian
OVCAR-4 ovarian = test system: OVCAR-4 ovarian
OVCAR-5 ovarian = test system: OVCAR-5 ovarian
OVCAR-8 ovarian = test system: OVCAR-8 ovarian
PC-3 prostate = test system: PC-3 prostate
RPMI-8226 leukemia = test system: RPMI-8226 leukemia
RXF 393 renal = test system: RXF 393 renal
SF-268 CNS = test system: SF-268 CNS
SF-295 CNS = test system: SF-295 CNS
SF-539 CNS = test system: SF-539 CNS
SK-MEL-2 melanoma = test system: SK-MEL-2 melanoma
SK-MEL-28 melanoma = test system: SK-MEL-28 melanoma
SK-MEL-5 melanoma = test system: SK-MEL-5 melanoma
SK-OV-3 ovarian = test system: SK-OV-3 ovarian
SN12C renal = test system: SN12C renal
SNB-19 CNS = test system: SNB-19 CNS
SNB-75 CNS = test system: SNB-75 CNS
SR leukemia = test system: SR leukemia
SW-620 colon = test system: SW-620 colon
T-47D breast = test system: T-47D breast
TK-10 renal = test system: TK-10 renal
U251 CNS = test system: U251 CNS
UACC-257 melanoma = test system: UACC-257 melanoma
UACC-62 melanoma = test system: UACC-62 melanoma
UO-31 renal = test system: UO-31 renal

For C=C1C(=O)O[C@H]2[C@H]1CC/C(COC(=O)NCc1c[nH]c3ccccc13)=C\CC[C@@]1(C)O[C@@H]21, the TGI (NCI-H23 lung) was 24.5 µM, the GI50 (NCI-H460 lung) was 8.14 µM and the TGI (NCI-H460 lung) was 23.1 µM. It also gave a GI50 (NCI-H522 lung) of 1.23 µM, a TGI (NCI-H522 lung) of 2.58 µM and a GI50 (NCI/ADR-RES ovarian) of 6.4 µM. The TGI (NCI/ADR-RES ovarian) was 23.1 µM, the GI50 (OVCAR-3 ovarian) was 1.71 µM and the TGI (OVCAR-3 ovarian) was 4.57 µM. For the same compound, the GI50 (OVCAR-4 ovarian) was 4.5 µM, the TGI (OVCAR-4 ovarian) was 18.6 µM and the GI50 (OVCAR-5 ovarian) was 3.63 µM. For the same compound, the TGI (OVCAR-5 ovarian) was 14.4 µM, the GI50 (OVCAR-8 ovarian) was 2.2 µM and the TGI (OVCAR-8 ovarian) was 6.99 µM. It also gave a GI50 (PC-3 prostate) of 5.16 µM, a TGI (PC-3 prostate) of 18.9 µM and a GI50 (RPMI-8226 leukemia) of 1.79 µM. The TGI (RPMI-8226 leukemia) was 6.14 µM, the GI50 (RXF 393 renal) was 1.24 µM and the TGI (RXF 393 renal) was 2.72 µM. It also gave a GI50 (SF-268 CNS) of 10.4 µM, a TGI (SF-268 CNS) of 22.6 µM and a GI50 (SF-295 CNS) of 12.1 µM. The TGI (SF-295 CNS) was 24.7 µM, the GI50 (SF-539 CNS) was 2.82 µM and the TGI (SF-539 CNS) was 10.4 µM. The GI50 (SK-MEL-2 melanoma) was 11.1 µM, the TGI (SK-MEL-2 melanoma) was 24.5 µM and the GI50 (SK-MEL-28 melanoma) was 2.65 µM. For the same compound, the TGI (SK-MEL-28 melanoma) was 8.99 µM, the GI50 (SK-MEL-5 melanoma) was 12.1 µM and the TGI (SK-MEL-5 melanoma) was 25 µM. For the same compound, the GI50 (SK-OV-3 ovarian) was 13.7 µM, the TGI (SK-OV-3 ovarian) was 26.6 µM and the GI50 (SN12C renal) was 1.77 µM. For the same compound, the TGI (SN12C renal) was 5.47 µM, the GI50 (SNB-19 CNS) was 10.6 µM and the TGI (SNB-19 CNS) was 22.8 µM. For the same compound, the GI50 (SNB-75 CNS) was 9.86 µM, the TGI (SNB-75 CNS) was 21.7 µM and the GI50 (SR leukemia) was 2.22 µM. It also gave a TGI (SR leukemia) of 8.35 µM, a GI50 (SW-620 colon) of 1.7 µM and a TGI (SW-620 colon) of 4.28 µM. It also gave a GI50 (T-47D breast) of 1.57 µM, a TGI (T-47D breast) of 4.11 µM and a GI50 (TK-10 renal) of 2.55 µM. It also gave a TGI (TK-10 renal) of 5.65 µM, a GI50 (U251 CNS) of 11.1 µM and a TGI (U251 CNS) of 23.1 µM. It also gave a GI50 (UACC-257 melanoma) of 4.25 µM, a TGI (UACC-257 melanoma) of 15.9 µM and a GI50 (UACC-62 melanoma) of 1.72 µM. It also gave a TGI (UACC-62 melanoma) of 3.95 µM, a GI50 (UO-31 renal) of 1.34 µM and a TGI (UO-31 renal) of 2.68 µM.
